According to US20190100534A1, “Cephem Compounds with Latent Reactive Groups” (Gladius Pharmaceuticals, Inc., priority 2017, published 2019):

Assays:
Experiment in all cases: MIC determination
Assay type in all cases: cell-based
[1] = tested on: Pseudomonas aeruginosa PA (RR-2); conditions: Pseudomonas aeruginosa; PA (RR-2); CAMH broth, 20 μM Apo-Transferrin, 37° C., 18 hours; read-out: Minimum Inhibitory Concentrations, PA (RR-2)
Method in brief: (§1)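 Using an iron-depleting medium (CAMH plus 20 μM apo-transferrin), organisms at 0.5 McFarland faced compound from 64 μg/mL downward in twofold steps. Readout: visual, after 18 h at 37 °C.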

[2] = tested on: Pseudomonas aeruginosa PA (URMC-3); conditions: Pseudomonas aeruginosa; PA (URMC-3); CAMH broth, 20 μM Apo-Transferrin, 37° C., 18 hours; read-out: Minimum Inhibitory Concentrations, PA (URMC-3)
Method in brief: as §1

[3] = tested on: Pseudomonas aeruginosa PA-RR-(980151052); conditions: Pseudomonas aeruginosa; PA-RR-(980151052); CAMH broth, 20 μM Apo-Transferrin, 37° C., 18 hours; read-out: Minimum Inhibitory Concentrations, PA-RR-(980151052)
Method in brief: as §1

[4] = tested on: Pseudomonas aeruginosa PA-RR-(98023895); conditions: Pseudomonas aeruginosa; PA-RR-(98023895); CAMH broth, 20 μM Apo-Transferrin, 37° C., 18 hours; read-out: Minimum Inhibitory Concentrations, PA-RR-(98023895)
Method in brief: as §1

[5] = tested on: Pseudomonas aeruginosa PA-RR-(G7304100); conditions: Pseudomonas aeruginosa; PA-RR-(G7304100); CAMH broth, 20 μM Apo-Transferrin, 37° C., 18 hours; read-out: Minimum Inhibitory Concentrations, PA-RR-(G7304100)
Method in brief: as §1

[6] = tested on: Pseudomonas aeruginosa PA-RR-(G7305586); conditions: Pseudomonas aeruginosa; PA-RR-(G7305586); CAMH broth, 20 μM Apo-Transferrin, 37° C., 18 hours; read-out: Minimum Inhibitory Concentrations, PA-RR-(G7305586)
Method in brief: as §1

| SMILES | MIC [1] | MIC [2] | MIC [3] | MIC [4] | MIC [5] | MIC [6] |
| --- | --- | --- | --- | --- | --- | --- |
| Cn1c[n+](Cc2ccc(C=CC3=C(C(=O)O)N4C(=O)[C@@H](NC(=O)/C(=N\OC(C)(C)C(=O)O)c5csc(N)n5)[C@H]4SC3)cc2)cc1C(=O)Nc1ccc(O)c(O)c1 (mixture of isomers) [Compound 411, 3-(4-((E/Z)-2-((6R,7R)-7-((Z)-2-(2-aminothiazol-4-yl)-2-(((2-carboxypropan-2-yl)oxy)imino)acetamido)-2-carboxy-8-oxo-5-thia-1-azabicyclo[4.2.0]oct-2-en-3-yl)vinyl)benzyl)-5-((3,4-dihydroxyphenyl)carbamoyl)-1-methyl-1H-imidazol-3-ium] | 4 µg/mL | 0.5 µg/mL | 8 µg/mL | 8 µg/mL | 1 µg/mL | 16 µg/mL |
| CC(C)(O/N=C(\C(=O)N[C@@H]1C(=O)N2C(C(=O)O)=C(C=Cc3ccc(C[n+]4cccc(-c5ccc(O)c(O)c5)c4)cc3)CS[C@H]12)c1csc(N)n1)C(=O)O (mixture of isomers) [Compound 413, 1-(4-((E/Z)-2-((6R,7R)-7-((Z)-2-(2-aminothiazol-4-yl)-2-(((2-carboxypropan-2-yl)oxy)imino)acetamido)-2-carboxy-8-oxo-5-thia-1-azabicyclo[4.2.0]oct-2-en-3 yl)vinyl)benzyl)-3-(3,4-dihydroxyphenyl)pyridin-1-ium] | 2 µg/mL | 0.13 µg/mL | 4 µg/mL | 4 µg/mL | ≤ 0.06 µg/mL | 8 µg/mL |
| Cc1c[n+](Cc2ccc(C=CC3=C(C(=O)O)N4C(=O)[C@@H](NC(=O)/C(=N\OC(C)(C)C(=O)O)c5csc(N)n5)[C@H]4SC3)cc2)ccc1-c1ccc(O)c(O)c1 (mixture of isomers) [Compound 422, 1-(4-((E/Z)-2-((6R,7R)-7-((Z)-2-(2-aminothiazol-4-yl)-2-(((2-carboxypropan-2-yl)oxy)imino)acetamido)-2-carboxy-8-oxo-5-thia-1-azabicyclo[4.2.0]oct-2-en-3-yl)vinyl)benzyl)-4-(3,4-dihydroxyphenyl)-3-methylpyridin-1-ium] | 2 µg/mL | ≤ 0.06 µg/mL | 8 µg/mL | 8 µg/mL | ≤ 0.06 µg/mL | 16 µg/mL |
| CC(C)(O/N=C(\C(=O)N[C@@H]1C(=O)N2C(C(=O)O)=C(C=Cc3ccc(C[N+]4(C)Cc5cc(O)c(O)cc5C4)cc3)CS[C@H]12)c1csc(N)n1)C(=O)O (mixture of isomers) [Compound 424, 2-(4-((E/Z)-2-((6R,7R)-7-((Z)-2-(2-aminothiazol-4-yl)-2-(((2-carboxypropan-2-yl)oxy)imino)acetamido)-2-carboxy-8-oxo-5-thia-1-azabicyclo[4.2.0]oct-2-en-3-yl)vinyl)benzyl)-5,6-dihydroxy-2-methylisoindolin-2-ium] | 4 µg/mL | 0.13 µg/mL | 4 µg/mL | 8 µg/mL | ≤ 0.06 µg/mL | 8 µg/mL |
| CC(C)(O/N=C(\C(=O)N[C@@H]1C(=O)N2C(C(=O)O)=C(C=Cc3ccc(C[N+](C)(C)Cc4ccc(O)c(O)c4)cc3)CS[C@H]12)c1csc(N)n1)C(=O)O (mixture of isomers) [Compound 426, N-(4-((E/Z)-2-((6R,7R)-7-((Z)-2-(2-aminothiazol-4-yl)-2-(((2-carboxypropan-2-yl)oxy)imino)acetamido)-2-carboxy-8-oxo-5-thia-1-azabicyclo[4.2.0]oct-2-en-3-yl)vinyl)benzyl)-1-(3,4-dihydroxyphenyl)-N,N-dimethylmethanaminium] | 2 µg/mL | 64 µg/mL | 4 µg/mL | 8 µg/mL | 0.25 µg/mL | 4 µg/mL |
| CC(C)(O/N=C(\C(=O)N[C@@H]1C(=O)N2C(C(=O)O)=C(C=Cc3ccc(C[n+]4ccc(NC(=O)c5ccc(O)c(O)c5)cc4)cc3)CS[C@H]12)c1csc(N)n1)C(=O)O (mixture of isomers) [Compound 427, 1-(4-((E/Z)-2-((6R,7R)-7-((Z)-2-(2-aminothiazol-4-yl)-2-(((2-carboxypropan-2-yl)oxy)imino)acetamido)-2-carboxy-8-oxo-5-thia-1-azabicyclo[4.2.0]oct-2-en-3-yl)vinyl)benzyl)-4-(3,4-dihydroxybenzamido)pyridin-1-ium] | ≤ 0.06 µg/mL | 0.25 µg/mL | 0.5 µg/mL | 4 µg/mL | ≤ 0.06 µg/mL | 8 µg/mL |
| CC(C)(O/N=C(\C(=O)N[C@@H]1C(=O)N2C(C(=O)O)=C(C=Cc3ccc(C[N+](C)(C)Cc4ccc(O)c(O)c4Cl)cc3)CS[C@H]12)c1csc(N)n1)C(=O)O (mixture of isomers) [Compound 434, N-(4-((E/Z)-2-((6R,7R)-7-((Z)-2-(2-aminothiazol-4-yl)-2-(((2-carboxypropan-2-yl)oxy)imino)acetamido)-2-carboxy-8-oxo-5-thia-1-azabicyclo[4.2.0]oct-2-en-3-yl)vinyl)benzyl)-1-(2-chloro-3,4-dihydroxyphenyl)-N,N-dimethylmethanaminium] | 2 µg/mL | 16 µg/mL | 4 µg/mL | 8 µg/mL | 2 µg/mL | 8 µg/mL |
| CC(C)(O/N=C(\C(=O)N[C@@H]1C(=O)N2C(C(=O)O)=C(C=Cc3ccc(C[N+](C)(C)Cc4cc(O)c(O)c(Cl)c4)cc3)CS[C@H]12)c1csc(N)n1)C(=O)O (mixture of isomers) [Compound 436, N-(4-((E/Z)-2-((6R,7R)-7-((Z)-2-(2-aminothiazol-4-yl)-2-(((2-carboxypropan-2-yl)oxy)imino)acetamido)-2-carboxy-8-oxo-5-thia-1-azabicyclo[4.2.0]oct-2-en-3-yl)vinyl)benzyl)-1-(3-chloro-4,5-dihydroxyphenyl)-N,N-dimethylmethanaminium] | 4 µg/mL | 64 µg/mL | 4 µg/mL | 4 µg/mL | 4 µg/mL | 8 µg/mL |
